# Reference: patent US20200115688A1, “COMPOSITIONS AND METHODS FOR ENHANCING GENOME EDITING” (The Regents of the University of California, priority 2017, published 2020)
# Tested on: Neural progenitor cells with a tdTomato reporter gene
# Experiment: Cas9 RNP genome editing in neural progenitor cells pretreated with Bafilomycin A1
# Assay type: cell-based
# Conditions: cells pretreated 1 hour before Cas9 RNPs added outside the cells; genomic DNA collected after 48 hours, target locus analyzed for Cas9-mediated targeted genomic deletions; FIG. 1
# Method: Neural progenitor cells with a tdTomato reporter gene were pretreated with Bafilomycin A1 for 1 hour prior to addition of Cas9 RNPs outside of the cells. After 24 hours cells were washed 2× with Heparin to remove any remaining Cas9 RNP outside the cells. After 48 hours genomicDNA was collected and the target locus analyzed for Cas9-mediated targeted genomic deletions.
compound,measurement,value
CO/C1=C\C(C)=C\[C@@H](C)[C@@H](O)[C@@H](C)C/C(C)=C/C=C/[C@H](OC)[C@@H]([C@@H](C)[C@@H](O)[C@H](C)[C@@]2(O)C[C@@H](O)[C@H](C)[C@@H](C(C)C)O2)OC1=O [bafilomycin A1],editing efficiency of 0×NLS-Cas9-2×NLS,no effect
same,"editing efficiency of cell penetrating Cas9 RNP, 4×NLS-Cas9-2×NLS",specifically increased
